Consider 1 molecule from ChEMBL document CHEMBL6182916, “Unexpected Discovery of a Novel Triphenylphosphonium Alkylalcohol That Triggers Cancer Cell Death via Mitophagy and Ferroptosis” (J Med Chem, 2025).

A short description of series [1]: Toxicity in female Kunming mouse assessed as change in body weight at 70 mg/kg, ip measured every two days for 7 days. The format is organism-based. Conditions: in vivo, 168 h, time 7 day.
In series [2] the test system is HCC827. Briefly: Induction of apoptosis in human HCC827 cells assessed as late apoptotic cells at 1 uM measured after 36 hrs by annexin V and PI staining based flow cytometry analysis (reference value: 2.18%). The class given is functional. On the technique in general: Flow cytometry measures light scatter and fluorescence of single cells or particles in a stream.

Series [3] relates to HCC827. Briefly: Downregulation of SDHB protein level in human HCC827 cells at 0.25 to 0.5 uM measured after 12 hrs. The format is functional, cell-based. The conditions noted are these: dose 0.25-0.5 µM.
Series [4] relates to HCC827. Description: Effect on NDUFB8 expression in human HCC827 cells at 0.25 to 0.5 uM incubated for 24 hrs by Western blot analysis. Conditions: dose 0.25-0.5 µM. The class given is functional, cell-based. For orientation: A western blot detects proteins with antibodies after separation by electrophoresis.
Series [5] has as its system HCC827. Description: Antitumor activity against human HCC827 cells xenografted in female nude mouse model assessed as reduction in tumor weight at 5 to 10 mg/kg, ip measured every two days for 14 days. The class given is functional, organism-based. Conditions: dose 5-10 mg/kg, time 14.0 day. In general terms: Xenograft models place foreign cells or tissue in a host animal.

The test system of series [6] is HCC827. Briefly: Upregulation of parkin phosphorylation level in human HCC827 cells at 0.25 to 0.5 uM measured after 24 hrs. The class given is functional, cell-based. Conditions: dose 0.25-0.5 µM.
The subject of series [7] is HCC827. Briefly: Induction of cell cycle arrest in human HCC827 cells assessed as accumulation of cells at G1 phase at 0.4 uM incubated for 24 hrs by PI staining based flow cytometry analysis (reference value: 66.44%). The class given is functional.
The test system of series [8] is BEAS-2B. Description: Inhibition of colony formation in human BEAS-2B cells at 0.05 to 0.1 uM incubated for 72 hrs by crystal violet staining based analysis. Conditions: dose 0.05-0.1 µM. The format is functional, cell-based.
Series [9] deals with HCC827. Briefly: Induction of cell cycle arrest in human HCC827 cells assessed as accumulation of cells at G2 phase at 0.4 uM incubated for 24 hrs by PI staining based flow cytometry analysis (reference value: 7.15%). The class given is functional.
Series [10] can be described thus: Toxicity in female BALB/c mouse assessed as animal death at 30 mg/kg, ip measured for 7 days. Conditions: in vivo, 168 h, time 7 day. The class given is organism-based.
In series [11] the test system is HCC827. Description: Downregulation of TIMM23 expression level in human HCC827 cells at 0.5 uM by Western blot analysis. The format is functional, cell-based. Conditions: time 3-24 hrs.
The test system of series [12] is NCI-H460. Description: Antiproliferative activity against human NCI-H460 cells assessed as inhibition of cell growth measured after 72 hrs by MTT assay. The format is functional, cell-based. Conditions: NCI-H460, 72 h.
The test system of series [13] is HCC827. Description: Induction of cell cycle arrest in human HCC827 cells assessed as accumulation of cells at G1 phase at 0.2 uM incubated for 24 hrs by PI staining based flow cytometry analysis (reference value: 66.44%). The class given is functional.
Series [14] has as its system HCC827. Description: Induction of mitophagy in human HCC827 cells assessed as increase in LC3-II/LC-3-I ratio at 0.5 uM measured after 24 hrs in presence of Baf A1 by Western blot analysis. The format is functional, cell-based.
The subject of series [15] is HCC827. Description: Induction of mitochondrial dysfunction in human HCC827 cells assessed as appearance of disrupted cristae at 1 uM after 24 hrs by TEM analysis. The format is functional, cell-based.
Series [16] deals with HCC827. Description: Induction of apoptosis in human HCC827 cells assessed as late apoptotic cells at 0.25 uM measured after 48 hrs by annexin V and PI staining based flow cytometry analysis (reference value: 1.29%). The format is functional.
The test system of series [17] is HCC827. Description: Induction of mitochondrial dysfunction in human HCC827 cells assessed as cytochrome C release in cytoplasm at 0.4 uM measured after 72 hrs by laser scanning confocal fluorescence microscopic analysis. The class given is functional, cell-based.
The test system of series [18] is Mitochondrial membrane. Description: Induction of mitochondrial membrane depolarization in human HCC827 cells assessed as decrease in red fluorescence at 0.125 to 0.5 uM incubated for 4 hrs by JC-1 staining based confocal microscopy analysis. The format is cell membranes. The conditions noted are these: dose 0.125-0.5 µM.
In series [19] the test system is Mitochondrial membrane. Briefly: Induction of mitochondrial membrane depolarization in human HCC827 cells assessed as increase green fluorescence incubated for 4 hrs by JC-1 staining based confocal microscopy analysis. The format is cell membranes. The conditions noted are these: dose 0.125-0.5 µM.
Series [20] deals with HCC827. Description: Induction of apoptosis in human HCC827 cells assessed as viable cells at 1 uM measured after 24 hrs by annexin V and PI staining based flow cytometry analysis (reference value: 95.10%). The format is functional. The conditions noted are these: read-out: Activity.
The subject of series [21] is HCT-116. Description: Antiproliferative activity against human HCT-116 cells assessed as inhibition of cell growth measured after 72 hrs by MTT assay. The class given is functional, cell-based. The conditions noted are these: HCT-116, 72 h.

Each structure is given as a SMILES string. Calls of active or inactive are those of the source. No cut-off for these calls is given here.

In general, IC50 refers to the concentration that gives 50% inhibition.

As for `Cc1ccc([P+](CCCCCCCCCCO)(c2ccc(C)cc2)c2ccc(C)cc2)cc1.[Br-]`, the Activity entry in [1] was “Toxic”; in series [2], 0.32%; in series [7], 85.66%; in series [9] it was 4.95%; in series [10] it was “Non-toxic”; in [11], “Time-dependent-effect”. In addition, the Activity in [13] was 76.74%; in series [16], 3.3%; in [19], “Dose-dependent-effect”. In addition, the result in [3], in [4], in series [5], in series [6], in series [15] and in [17] was Active. For the same molecule, in series [18], the outcome was Active. Moreover, the inhibition result in [8] is “Minimal_effect”. In addition, the results for the IC50 in series [12] and in series [21] were 110 nM and 620 nM, respectively. The result in [14] was inactive. In series [20], the viability at 1 µM was found to be 93.6%.
